Assay results taken from patent US20100190794A1, “Herbicidally Active Composition” (BASF SE, priority 2007, published 2010).

Legend:
SOLNI = assay: greenhouse test, pre-emergence treatment; assay type: in vivo, Solanum nigrum L.; details: Use Example 22
Text: (§1) The culture containers used were plastic pots containing loamy sand with approximately 3.0% of humus as substrate. The seeds of the test plants were sown separately for each species.
(§2) For the pre-emergence treatment, the active compounds, suspended or emulsified in water, were applied directly after sowing by means of finely distributing nozzles. The containers were irrigated gently to promote germination and growth and subsequently covered with transparent plastic hoods until the plants had rooted. This cover caused uniform germination of the test plants unless this was adversely affected by the active compounds.
(§3) Depending on the species, the plants were kept at 10-25° C. and 20-35° C., respectively. The test period extended over 2 to 4 weeks. During this time, the plants were tended and their response to the individual treatments was evaluated.
(§4) Evaluation was carried out using a scale from 0 to 100. 100 means no emergence of the plants, or complete destruction of at least the above-ground parts, and 0 means no damage or normal course of growth. Good herbicidal activity is given at values of at least 70, and very good herbicidal activity is given at values of at least 85.
(§5) The respective stated components A and B, and if appropriate, C were formulated as a 5% by weight or 10% by weight strength emulsion concentrate or a commercially available formulation of component B was used and, with addition of the amount of solvent system, introduced into the spray liquor used for applying the active compound. In the examples, the solvent used was water.
(§6) The test period extended over 20 or 21 days. During this time, the plants were tended, and their reactions to the treatment with active compound was monitored.
(§7) What was evaluated was the damage by the chemical compositions using a scale of from 0 to 100%, in comparison to the untreated control plants. 0 means no damage, and 100 means complete destruction of the plants.
(§8) In the examples below, using the method of S. R. Colby (1967) “Calculating synergistic and antagonistic responses of herbicide combinations”, Weeds 15, p. 22 ff., the value E, which is expected if the activity of the individual active compounds is only additive, was calculated.
(§9) where X=percent activity using active compound A at an application rate a; Y=percent activity using active compound B at an application rate b; E=expected activity (in %) by A+B at application rates a+b.
(§10) If the value found in experiments is higher than the value E calculated according to Colby, a synergistic effect is present.

LAMPU = assay: greenhouse test, pre-emergence treatment; assay type: in vivo, Lamium purpureum; details: 25 g/ha a.s., Use Example 11
Text: as §1, §2, §3, §4, §5, §6, §7, §8, §9, §10

SETFA = assay: greenhouse test, pre-emergence treatment; assay type: in vivo, Setaria faberi
Text: as §1, §2, §3, §4, §5, §6, §7, §8, §9, §10

SETVI = assay: greenhouse test, pre-emergence treatment; assay type: in vivo, Setaria viridis; details: 25 g/ha a.s., Use Example 11
Text: as §1, §2
Depending on the species, the plants were kept at 10-25° C. and 20-35° C., respectively. […] During this time, the plants were tended and their response to the individual treatments was evaluated. […]
as §6
What was evaluated was the damage by the chemical compositions using a scale of from 0 to 100%, in comparison to the untreated control plants. […]
In the examples below, using the method of S. R. Colby (1967) “Calculating synergistic and antagonistic responses of herbicide combinations”, Weeds 15, p. 22 ff., the value E, which is expected if the activity of the individual active compounds is only additive, was calculated. […]

ECHCG = assay: greenhouse test, pre-emergence treatment; assay type: in vivo, Echinochloa crus-galli; details: Use Example 22
Text: as §1, §2, §3, §4, §5, §6, §7, §8, §9, §10

BRAPL = assay: greenhouse test, pre-emergence treatment; assay type: in vivo, Brachiaria plantaginea; details: Use Example 12
Text: as §1, §2, §3, §4, §5, §6, §7, §8, §9, §10

DIGSA = assay: greenhouse test, pre-emergence treatment; assay type: in vivo, Digitaria sanguinalis; details: Use Example 22
Text: as §1, §2, §3, §4, §5, §6, §7, §8, §9, §10

LOLMU = assay: greenhouse test, pre-emergence treatment; assay type: in vivo, Lolium multiflorum; details: 25 g/ha a.s., Use Example 11
Text: as §1, §2, §3, §4, §5, §6, §7, §8, §9, §10

Row | Compound | Herbicidal action in % after 20 days against SOLNI (SOLNI; 6.25 g/ha a.s.) [%] | Herbicidal action in % after 20 days against SOLNI (SOLNI; 13 g/ha a.s.) [%] | Herbicidal action in % after 21 days against LAMPU (LAMPU) [%] | Herbicidal action in % after 20 days against SETFA (SETFA; 6.25 g/ha a.s., Use Example 22) [%] | Herbicidal action in % after 20 days against SETFA (SETFA; 12.5 g/ha a.s., Use Example 12) [%] | Herbicidal action in % after 20 days against SETFA (SETFA; 13 g/ha a.s., Use Example 22) [%] | Herbicidal action in % after 20 days against SETFA (SETFA; 25 g/ha a.s., Use Example 12) [%] | Herbicidal action in % after 21 days against SETVI (SETVI) [%] | Herbicidal action in % after 20 days against ECHCG (ECHCG; 6.25 g/ha a.s.) [%] | Herbicidal action in % after 20 days against ECHCG (ECHCG; 13 g/ha a.s.) [%] | Herbicidal action in % after 20 days against BRAPL (BRAPL; 12.5 g/ha a.s.) [%] | Herbicidal action in % after 20 days against BRAPL (BRAPL; 25 g/ha a.s.) [%] | Herbicidal action in % after 20 days against DIGSA (DIGSA; 6.25 g/ha a.s.) [%] | Herbicidal action in % after 20 days against DIGSA (DIGSA; 13 g/ha a.s.) [%] | Herbicidal action in % after 21 days against LOLMU (LOLMU) [%] | melting point [°C]
1 | Cn1nc(C(F)(F)F)c(CS(=O)(=O)C2=NOC(C)(C)C2)c1OC(F)F [Pyroxasulfone] | 40 | 85 | 55 | 75 | 75 | 98 | 98 | 100 | 55 | 85 | 40 | 75 | 70 | 95 | 90 | 
2 | CN1C(=O)C(Cc2ccccc2)N(C)C(=O)C1=Cc1c(C#N)ccc(F)c1F (stereo not shown) [Example 15, 2-[5-Benzyl-1,4-dimethyl-3,6-dioxopiperazin-2-ylidenemethyl]-3,4-difluoro-benzonitrile] |  |  |  |  |  |  |  |  |  |  |  |  |  |  |  | 175
